test system: mouse bone marrow mesenchymal stem cell line (MSC-1 cells), PDGFRα-positive; assay: Migration assay (Boyden / 48-well chemotaxis chamber) on bone marrow mesenchymal stem cell line MSC-1; assay type: cell-based; conditions: 2 μM, area of migrated cells by image analysis, FIG. 10
Procedure: Cells of a mouse bone marrow mesenchymal stem cell line (MSC-1 cells, established by Tamai et al. of Osaka University (PDGFRα-positive cells in bone marrow are mobilized by high mobility group box 1 (HMGB1) to regenerate injured epithelia. (Tamai et al., Proc Natl Acad Sci USA. Apr. 4, 2011))) were detached from dishes using trypsin, and collected by centrifugation at 1200 rpm and 4° C. for 10 minutes. The resulting pellet was loosened and suspended at a cell concentration of 2.0×10^6 to 3.0×10^6 cells/ml by adding Dulbecco's Modified Eagle Medium (D-MEM) containing 10% fetal bovine serum (FBS). The recombinant protein and peptides produced in HEK293 were diluted with D-MEM containing 10% FBS. The negative control used was phosphate buffered saline (PBS). An acrylic Boyden chamber was used; cells of the mouse bone marrow mesenchymal stem cell line prepared at a cell concentration of 3×10^6 cells/ml were placed in its upper layer, while a diluted protein or peptide is added to the bottom layer. More specifically, a 28 μl aliquot of a protein or peptide solution was added to each well of the bottom plate of a 48-well chemotaxis chamber (NEURO PROBE 48WELL CHEMOTAXIS CHAMBER), and a polycarbonate membrane with 8 μm pores (Neuro Probe, Inc, Cat: 866-417-0014) was placed on the bottom plate. Then, an upper plate was placed on the membrane and screwed tightly. 50 μl of cells of the mouse bone marrow mesenchymal stem cell line after concentration adjustment were added to the upper plate wells. The chamber was placed in an incubator under 5% CO2 at 37° C. After four hours, the membrane was removed from the chamber and stained with Diff-Quik (Sysmex, Cat: 16920) to detect cells that migrated through membrane pores to the lower compartment.
The peptides listed below were custom synthesized using the solid phase method by Medical & Biological Laboratories (MBL). The peptides were synthesized based on the mouse HMGB1 sequence (SEQ ID NO: 3). Synthetic peptides described in subsequent Examples were also prepared based on the mouse HMGB1 sequence. • A synthetic peptide consisting of the amino acid sequence from positions 1 to 10 of HMGB1 (1-10); • a synthetic peptide consisting of the amino acid sequence from positions 1 to 34 of HMGB1 (1-34); • a synthetic peptide consisting of the amino acid sequence from positions 37 to 62 of HMGB1 (37-62); • a synthetic peptide consisting of the amino acid sequence from positions 27 to 62 of HMGB1 (27-62); • a synthetic peptide consisting of the amino acid sequence from positions 56 to 72 of HMGB1 (56-72); • a synthetic peptide consisting of the amino acid sequence from positions 11 to 20 of HMGB1 (11-20); • a synthetic peptide consisting of the amino acid sequence from positions 11 to 25 of HMGB1 (11-25); • a synthetic peptide consisting of the amino acid sequence from positions 11 to 30 of HMGB1 (11-30); • a synthetic peptide consisting of the amino acid sequence from positions 11 to 34 of HMGB1 (11-34); • a synthetic peptide consisting of the amino acid sequence from positions 11 to 44 of HMGB1 (11-44); • a synthetic peptide consisting of the amino acid sequence from positions 17 to 44 of HMGB1 (17-44); • a synthetic peptide consisting of the amino acid sequence from positions 1 to 25 of HMGB1 (1-25); and the whole mouse HMGB1 produced in HEK293 (1-215(HEK)) as a positive control were adjusted to 100 μg/ml and placed in the lower layer of a chemotaxis chamber to assess the migration-promoting activity on bone marrow mesenchymal stem cell line (MSC-1). Results
As positive controls, centrifuged supernatant of the skin of a one-day-old mouse (one individual) incubated in PBS at 4° C. for 12 hours, and the whole mouse HMGB1 (HMGB1(HEK_1-215)) produced in HEK293 were used. […]

Substance | migration-promoting activity relative to the full-length HMGB1, compared per equal mass | migration-promoting activity relative to the full-length HMGB1, compared per equal mole
peptide (1-44) produced in E. coli: amino acids of positions 1 to 44 of mouse HMGB1 produced using E. coli, tag removed by HRV3C (MGKGDPKKPRGKMSSYAFFVQTCREEHKKKHPDASVNFSEFSKK; UniProt P63158 1-44, looked up, fragment) | about 8 times | about 1.6 times

same assay, conditions: synthetic peptides, 5 μM, FIGS. 8A and 8B

Substance | migration-promoting activity
(10-25): synthetic peptide consisting of the amino acid sequence from positions 10 to 25 of HMGB1 (RGKMSSYAFFVQTCRE; UniProt P09429 10-25, looked up, fragment) | strong migration-promoting activity
(11-25): synthetic peptide consisting of the amino acid sequence from positions 11 to 25 of HMGB1 (GKMSSYAFFVQTCRE; UniProt P09429 11-25, looked up, fragment) | weak activity
(11-27): synthetic peptide consisting of the amino acid sequence from positions 11 to 27 of HMGB1 (GKMSSYAFFVQTCREEH; UniProt P09429 11-27, looked up, fragment) | strong migration-promoting activity
(11-28): synthetic peptide consisting of the amino acid sequence from positions 11 to 28 of HMGB1 (GKMSSYAFFVQTCREEHK; UniProt P09429 11-28, looked up, fragment) | strong migration-promoting activity
(11-29): synthetic peptide consisting of the amino acid sequence from positions 11 to 29 of HMGB1 (GKMSSYAFFVQTCREEHKK; UniProt P09429 11-29, looked up, fragment) | strong migration-promoting activity
(12-25): synthetic peptide consisting of the amino acid sequence from positions 12 to 25 of HMGB1 (KMSSYAFFVQTCRE; UniProt P09429 12-25, looked up, fragment) | weak activity
(12-30): synthetic peptide consisting of the amino acid sequence from positions 12 to 30 of HMGB1 (KMSSYAFFVQTCREEHKKK; UniProt P09429 12-30, looked up, fragment) | strong migration-promoting activity
(13-25): synthetic peptide consisting of the amino acid sequence from positions 13 to 25 of HMGB1 (MSSYAFFVQTCRE; UniProt P09429 13-25, looked up, fragment) | weak activity
(13-30): synthetic peptide consisting of the amino acid sequence from positions 13 to 30 of HMGB1 (MSSYAFFVQTCREEHKKK; UniProt P09429 13-30, looked up, fragment) | strong migration-promoting activity
(14-25): synthetic peptide consisting of the amino acid sequence from positions 14 to 25 of HMGB1 (SSYAFFVQTCRE; UniProt P09429 14-25, looked up, fragment) | weak activity
(14-30): synthetic peptide consisting of the amino acid sequence from positions 14 to 30 of HMGB1 (SSYAFFVQTCREEHKKK; UniProt P09429 14-30, looked up, fragment) | strong migration-promoting activity
(15-25): synthetic peptide consisting of the amino acid sequence from positions 15 to 25 of HMGB1 (SYAFFVQTCRE; UniProt P09429 15-25, looked up, fragment) | weak activity
(15-30): synthetic peptide consisting of the amino acid sequence from positions 15 to 30 of HMGB1 (SYAFFVQTCREEHKKK; UniProt P09429 15-30, looked up, fragment) | weak activity
(16-25): synthetic peptide consisting of the amino acid sequence from positions 16 to 25 of HMGB1 (YAFFVQTCRE; UniProt P09429 16-25, looked up, fragment) | weak activity
(16-30): synthetic peptide consisting of the amino acid sequence from positions 16 to 30 of HMGB1 (YAFFVQTCREEHKKK; UniProt P09429 16-30, looked up, fragment) | weak activity
(17-30): synthetic peptide consisting of the amino acid sequence from positions 17 to 30 of HMGB1 (AFFVQTCREEHKKK; UniProt P09429 17-30, looked up, fragment) | weak activity

same assay, conditions: synthetic peptides, 10 μM and 5 μM, FIG. 9

Substance | migration-promoting activity
(45-74): synthetic peptide consisting of the amino acids of positions 45 to 74 (CSERWKTMSAKEKGKFEDMAKADKARYERE; UniProt P09429 45-74, looked up, fragment) | exhibited migration-promoting activity which was however weaker as compared to synthetic peptides (1-44) and (1-34)
(55-84): synthetic peptide consisting of the amino acids of positions 55 to 84 (KEKGKFEDMAKADKARYEREMKTYIPPKGE; UniProt P09429 55-84, looked up, fragment) | exhibited migration-promoting activity which was however weaker as compared to synthetic peptides (1-44) and (1-34)

same assay, conditions: synthetic peptides, 100 μg/ml, positive control 1-215(HEK), FIG. 7

Substance | migration-promoting activity
(1-25): synthetic peptide consisting of the amino acid sequence from positions 1 to 25 of HMGB1 (MGKGDPKKPRGKMSSYAFFVQTCRE; UniProt P09429 1-25, looked up, fragment) | found to have the activity
(11-25): synthetic peptide consisting of the amino acid sequence from positions 11 to 25 of HMGB1 (GKMSSYAFFVQTCRE; UniProt P09429 11-25, looked up, fragment) | found to have the activity
(11-30): synthetic peptide consisting of the amino acid sequence from positions 11 to 30 of HMGB1 (GKMSSYAFFVQTCREEHKKK; UniProt P09429 11-30, looked up, fragment) | activity comparable to or higher than that of the positive control
(11-34): synthetic peptide consisting of the amino acid sequence from positions 11 to 34 of HMGB1 (GKMSSYAFFVQTCREEHKKKHPDA; UniProt P09429 11-34, looked up, fragment) | activity comparable to or higher than that of the positive control
(11-44): synthetic peptide consisting of the amino acid sequence from positions 11 to 44 of HMGB1 (GKMSSYAFFVQTCREEHKKKHPDASVNFSEFSKK; UniProt P09429 11-44, looked up, fragment) | activity comparable to or higher than that of the positive control
